Measurements published in the supplement of paper PMC10307832.

How the values were obtained:
Assay in all cases: relative viability (nuclei count vs DMSO), 5 days (fraction); higher = more cells survive
[1] = compound: CC1CC(=O)N(C2=CN=C(N=C2N1C3CCCC3)NC4=C(C=C(C=C4)C(=O)NC5CCN(CC5)C)OC)C [NPK76-II-72-1] + Nc1nc2[nH]cc(CCc3ccc(C(=O)N[C@@H](CCC(=O)O)C(=O)O)cc3)c2c(=O)[nH]1 [Pemetrexed] (partner 0.2 µM)
How it was run: (§1)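 Lung cancer cell lines were pin-tool dosed in 1536-well plates on the day after seeding, with either a lone drug or a fixed anchor-drug dose plus five library-drug doses (not always all listed) in √10 steps. Nuclei were counted on 4× images after 5 days. Relative viability is the ratio of treated-well to vehicle-well nuclei counts, with each value a median of duplicate plates.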

[2] = compound: CC[C@@H]1C(=O)N(C)c2cnc(Nc3ccc(C(=O)NC4CCN(C)CC4)cc3OC)nc2N1C1CCCC1 [BI-2536] + COc1cccc2cc(-c3nc([C@H]4CC[C@H](C(=O)O)CC4)n4ncnc(N)c34)[nH]c12 [OSI-027] (partner 0.5 µM)
How it was run: as §1

[3] = compound: CC[C@@H]1C(=O)N(C)c2cnc(Nc3ccc(C(=O)NC4CCN(C)CC4)cc3OC)nc2N1C1CCCC1 [BI-2536] + Nc1ncn([C@H]2C[C@H](O)[C@@H](CO)O2)c(=O)n1 [Decitabine] (partner 2 µM)
How it was run: as §1

[4] = compound: CC[C@@H]1C(=O)N(C)c2cnc(Nc3ccc(C(=O)NC4CCN(C)CC4)cc3OC)nc2N1C1CCCC1 [BI-2536] + O=C(c1cc(Cc2n[nH]c(=O)c3ccccc23)ccc1F)N1CCN(C(=O)C2CC2)CC1 [Olaparib] (partner 8 µM)
How it was run: as §1

| Cell Line | relative viability ([1]; first compound 0.01 µM) | relative viability ([1]; first compound 0.03162 µM) | relative viability ([1]; first compound 0.1 µM) | relative viability ([1]; first compound 0.3162 µM) | relative viability ([1]; first compound 1 µM) | relative viability ([2]; first compound 0.01 µM) | relative viability ([2]; first compound 0.03162 µM) | relative viability ([2]; first compound 0.1 µM) | relative viability ([2]; first compound 0.3162 µM) | relative viability ([2]; first compound 1 µM) | relative viability ([3]; first compound 0.01 µM) | relative viability ([3]; first compound 0.03162 µM) | relative viability ([3]; first compound 0.1 µM) | relative viability ([3]; first compound 0.3162 µM) | relative viability ([3]; first compound 1 µM) | relative viability ([4]; first compound 0.01 µM) | relative viability ([4]; first compound 0.03162 µM) | relative viability ([4]; first compound 0.1 µM) | relative viability ([4]; first compound 0.3162 µM) | relative viability ([4]; first compound 1 µM) |
| --- | --- | --- | --- | --- | --- | --- | --- | --- | --- | --- | --- | --- | --- | --- | --- | --- | --- | --- | --- | --- |
| HCC-44 | 0.65 | 0.689 | 0.613 | 0.619 | 0.684 | 0.483 | 0.527 | 0.13 | 0.135 | 0.12 | 1.01 | 0.974 | 0.843 | 0.332 | 0.298 | 1.05 | 1 | 0.952 | 0.378 | 0.33 |
| HCC-827 | 0.293 | 0.275 | 0.302 | 0.264 | 0.278 | 0.715 | 0.752 | 0.853 | 0.285 | 0.195 | 0.357 | 0.363 | 0.269 | 0.203 | 0.117 | 0.693 | 0.611 | 0.531 | 0.214 | 0.194 |
| NCI-H1623 | – | – | – | – | – | 0.433 | 0.392 | 0.39 | 0.233 | 0.294 | – | – | – | – | – | – | – | – | – | – |
| NCI-H2347 | 0.502 | 0.42 | 0.417 | 0.403 | 0.354 | – | 0.464 | 0.346 | 0.285 | 0.276 | 0.595 | 0.736 | 0.589 | 0.506 | 0.414 | 0.537 | 0.501 | 0.531 | 0.471 | 0.405 |
| PC-14 | 0.124 | 0.126 | 0.125 | 0.123 | 0.162 | 0.906 | 0.546 | 0.111 | 0.032 | 0.0346 | 0.227 | 0.172 | 0.09 | 0.0445 | 0.0408 | 0.258 | 0.155 | 0.0592 | 0.0538 | 0.0392 |
| NCI-H1651 | 0.534 | 0.61 | 0.611 | 0.527 | 0.6 | 0.686 | 0.758 | 0.272 | 0.0807 | 0.0995 | 0.592 | 0.627 | 0.495 | 0.12 | 0.0817 | 0.185 | 0.173 | 0.157 | 0.142 | 0.109 |
| HARA | 0.293 | 0.28 | 0.256 | – | 0.195 | 0.512 | 0.738 | 0.152 | 0.0483 | 0.0491 | 0.529 | 0.521 | 0.433 | 0.162 | 0.191 | 0.8 | 0.988 | 0.507 | 0.139 | 0.0972 |
| NCI-H1650 | 0.325 | 0.368 | 0.345 | 0.399 | 0.358 | 0.636 | 0.564 | 0.169 | 0.18 | 0.159 | 0.388 | 0.327 | 0.278 | 0.11 | 0.148 | 0.866 | 0.689 | 0.609 | 0.166 | 0.143 |
| NCI-H1395 | 1.02 | 0.842 | 0.972 | 0.856 | 0.881 | 0.617 | 0.64 | 0.313 | 0.306 | 0.386 | 0.628 | 0.509 | 0.366 | 0.337 | 0.345 | 0.4 | 0.396 | 0.329 | 0.364 | 0.355 |
| LU99A | 0.181 | 0.172 | 0.205 | 0.163 | 0.22 | 0.281 | 0.28 | 0.181 | 0.161 | 0.17 | 0.796 | 1.02 | 0.717 | 0.198 | 0.25 | 0.23 | 0.24 | 0.192 | 0.137 | 0.149 |
| NCI-H1355 | 1.02 | 1 | 0.99 | 0.972 | 1.06 | 0.421 | 0.389 | 0.206 | 0.176 | 0.189 | 0.357 | 0.369 | 0.342 | 0.148 | 0.154 | 0.728 | 0.598 | 0.536 | 0.169 | 0.17 |
| HCC-78 | 0.978 | 0.893 | 0.75 | 0.869 | 0.895 | 0.376 | 0.359 | 0.317 | 0.363 | 0.198 | 0.678 | 0.692 | 0.694 | 0.363 | 0.331 | 0.783 | 0.904 | 0.774 | 0.47 | 0.204 |
| NCI-H1563 | 0.581 | 0.767 | 0.839 | 0.604 | 0.767 | 0.811 | 0.792 | 0.704 | 0.535 | 0.541 | – | – | – | – | – | – | – | – | – | – |
| HCC-15 | 0.214 | 0.23 | 0.219 | 0.225 | 0.235 | 0.723 | 0.699 | 0.218 | 0.102 | 0.122 | 0.652 | 0.504 | 0.246 | 0.124 | 0.151 | 0.612 | 0.557 | 0.343 | 0.163 | 0.144 |
| EKVX | 0.358 | 0.447 | 0.435 | – | 0.387 | 0.717 | 0.731 | 0.66 | 0.258 | 0.149 | 0.303 | 0.333 | 0.288 | 0.164 | 0.169 | 0.856 | 0.827 | 0.582 | 0.211 | 0.177 |
| NCI-H2087 | 0.66 | 0.653 | 0.588 | 0.661 | 0.63 | 0.564 | 0.541 | 0.186 | 0.101 | 0.0808 | 0.273 | 0.247 | 0.149 | 0.0727 | 0.0981 | 0.614 | 0.673 | 0.471 | 0.0859 | 0.102 |
| LK-2 | 0.228 | 0.292 | 0.334 | 0.235 | 0.271 | 0.202 | 0.183 | 0.169 | 0.158 | 0.151 | 0.255 | 0.254 | 0.134 | 0.0869 | 0.137 | 0.578 | 0.491 | 0.28 | 0.098 | 0.134 |
